Measurements reported in ChEMBL document CHEMBL1158261, “Cercophorins A-C: novel antifungal and cytotoxic metabolites from the coprophilous fungus Cercophora areolata” (1996).

Tests used:
Assay type in all cases: functional
Sordaria fimicola = assay: Antifungal activity against Sordaria fimicola NRRL 6459 assessed as reduction in radical growth at 200 ug/disk by centerpoint inoculation disk assay; design: scale not given: the % may be the effect or the level left
Bacillus subtilis = assay: […] activity against Bacillus subtilis ATCC 6051 at 200 ug/disk by standard disk assay; conditions: read-out: IZ
Staphylococcus aureus = assay: […] activity against Staphylococcus aureus ATCC 29213 at 200 ug/disk by standard disk assay; conditions: read-out: IZ
Ascobolus = assay: Antifungal activity against Ascobolus furfuraceus NRRL 6460 assessed as reduction in radical growth at 200 ug/disk by centerpoint inoculation disk assay; design: scale not given: the % may be the effect or the level left

Structure (SMILES) | Activity (Sordaria fimicola) | zone of inhibition at 200 µg/disc (Bacillus subtilis) | zone of inhibition at 200 µg/disc (Staphylococcus aureus) | Activity (Ascobolus)
COC(=O)c1cc(OC)cc(O)c1C(=O)c1c(O)cc2cc(C)oc(=O)c2c1O [CERCOPHORIN A] | 34% | 26 mm | 16 mm | 
COC(=O)c1cc(OC)cc(OC(=O)c2c(O)cc3cc(C)oc(=O)c3c2O)c1O [CERCOPHORIN B] | 10% |  |  | 
COC(=O)c1cc(OC)cc(O)c1OC(=O)c1c(O)cc2cc(C)oc(=O)c2c1O [CERCOPHORIN C] | 51% |  |  | 
Cc1oc(=O)c2c(O)cc(O)c(C)c2c1C [DECARBOXYCITRINONE] | 100% |  |  | 100%
